Consider 28 compounds from US12053459B2, “CDK2 inhibitors and methods of using the same” (Cedilla Therapeutics, Inc., priority 2021, dated 2024).

The target of experiment [1] is T1, CDK2/Cyclin E1(14-475) (Homo sapiens, UniProt P24941). The experiment in a line: HotSpot kinase inhibition assay (radiometric, Reaction Biology Corporation). It counts as biochemical. To be noted: 10 μM ATP, class symbols A-D. How it is done: Inhibition of a select panel of CDK2/CCNE1 activities in the presence of compounds of the present disclosure was evaluated using the HotSpot™ assay (proprietary to Reaction Biology Corporation). In the assay, activated CDK2/Cyclin E1 catalyzes the transfer of radioactive phosphate to amino acid residues of peptide or protein substrates, which are detected radiometrically. […] Reactions contained 20 mM HEPES pH 7.5, 10 mM MgCl2, 1 mM EGTA, 2 mM DTT, 0.02% Brij35, 0.02 mg/mL BSA, 0.1 mM Na3VO4, 1% DMSO, 1.5 nM CDK2/Cyclin E1(14-475), 10 μM ATP, and 20 μM Histone H1 protein isolated from calf thymus (Sigma).
CDK2/Cyclin E1 […] and Histone H1 were mixed in reaction buffer. To this mixture, was added dose titrations of inhibitor compounds in 100% DMSO by acoustic transfer. The compound mixtures were incubated for 20 minutes, then the kinase reactions were initiated by the addition of a mixture of ATP and ^33P ATP for final concentrations of 10 μM total ATP, 20 μM Histone H1, and 1.5 nM CDK2/Cyclin E1 (14-475). The reactions were carried out for 120 minutes, then spotted on a P81 ion exchange filter paper, and extensively washed with 0.75% phosphoric acid. The resulting radioactive counts were normalized to yield % activity, plotted against compound concentration, and fit to a four-parameter equation to determine the IC50 for each compound.

The test system of a further experiment is Kuramochi cells. The experiment in a line: BrdU cell proliferation assay (colorimetric ELISA), Kuramochi cells. The experiment is classed as cell-based. To be noted: class symbols A-D. The essentials:
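Kuramochi cells (2,000/well, with Kuramochi RB^KO cells as a specificity control) were treated with a 4-point, 3-fold dilution series made from 10 mM compound stocks and left for 4 days at 37 °C. Proliferation was measured by 1 h BrdU labelling, then anti-BrdU peroxidase ELISA read at 450 nm. Signals were background-subtracted and normalized to DMSO wells.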
For orientation: An ELISA detects its analyte on a solid surface through an enzyme-linked reagent.

For experiment [2], the target named is T1, CDK2/Cyclin E1(14-475). The experiment in a line: Caliper LabChip EZ Reader mobility shift assay, inhibition of CDK2/Cyclin E1 activity. Particulars: class symbols A-D. It counts as biochemical. The method in brief: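 CDK2/Cyclin E1(14-475) pre-incubated 30 min with compound and ATP, then reaction started with 5-FAM-QSPKKG-CONH2; final 2.5 nM enzyme, 100 μM ATP, 1.5 μM peptide, HEPES pH 7.5. Stopped with EDTA after 100 min; substrate/product conversion by capillary electrophoresis mobility shift, IC50 from four-parameter fit.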

pIC50: −log10 of the molar value.

What is called pIC50 is −log10 of the IC50, conventionally taken in molar units. Regarding `CNC(=O)[C@H](CCCc1ccccc1)NC(=O)C1CN(C(=O)Cc2c[nH]c3cc(Cl)ccc23)CC2CN(C(=O)c3ccc4[nH]c(C)cc4c3)CC21` (some centres unmarked) [I-2], the pIC50 against CDK2/Cyclin E1(14-475) [1] was 4.00 to 5.00; in the experiment on Kuramochi cells, less than 5.00.
For `CNC(=O)[C@H](CCCc1ccccc1)NC(=O)C1CN(C(=O)Cc2c[nH]c3cc(Cl)ccc23)CC2CN(C(=O)c3ccc4nccnc4c3)CC21` (some centres unmarked) [I-17], the pIC50 against CDK2/Cyclin E1(14-475) [1] is less than 4.00; in the experiment on Kuramochi cells it was less than 5.00.
In the same order, the values of `CNC(=O)[C@H](CCCc1ccccc1)NC(=O)C1CN(C(=O)Cc2c[nH]c3cc(Cl)ccc23)CC2CN(C(=O)c3ccc(O)c(OC)c3)CC21` (some centres unmarked) [I-32] are less than 4.00 and less than 5.00.
For `CNC(=O)[C@H](CCCc1ccccc1)NC(=O)C1CN(C(=O)Cc2c[nH]c3cc(Cl)ccc23)CC2CN(C(=O)c3cccc(Oc4ccccc4)c3)CC21` (some centres unmarked) [I-35] the same measures were less than 4.00 and less than 5.00.
For the compound `CNC(=O)[C@H](CCCc1ccccc1)NC(=O)C1CN(C(=O)Cc2c[nH]c3cc(Cl)ccc23)CC2CN(C(=O)c3cncc(OC)n3)CC21` (some centres unmarked) [I-42], the figures for the pIC50 on CDK2/Cyclin E1(14-475) [1] and with Kuramochi cells were less than 4.00 and less than 5.00, respectively.
For `CNC(=O)[C@H](CCCc1ccccc1)NC(=O)C1CN(C(=O)Cc2c[nH]c3cc(Cl)ccc23)CC2CN(C(=O)c3ccccc3)CC21` (some centres unmarked) [I-50] the same measures were 5.00 to 6.00 and less than 5.00.
In the same order, the values of `CNC(=O)[C@H](CCCc1ccccc1)NC(=O)C1CN(C(=O)Cc2c[nH]c3cc(Cl)ccc23)CC2CN(C(=O)c3ccc4[nH]nnc4c3)CC21` (some centres unmarked) [I-62] are less than 4.00 and less than 5.00.
For `CNC(=O)[C@H](CCCc1ccccc1)NC(=O)C1CN(C(=O)Cc2c[nH]c3cc(Cl)ccc23)CC2CN(C(=O)c3cnc4nccn4c3)CC21` (some centres unmarked) [I-64] the same measures were 4.00 to 5.00 and less than 5.00.
Consider `CCOc1cccc(C(=O)N2CC3CN(C(=O)Cc4c[nH]c5cc(Cl)ccc45)CC(C(=O)N[C@@H](CCCc4ccccc4)C(=O)NC)C3C2)c1` (some centres unmarked) [I-67], for which the pIC50 against CDK2/Cyclin E1(14-475) [1] was 4.00 to 5.00.
For `CNC(=O)[C@H](CCCc1ccccc1)NC(=O)C1CN(C(=O)Cc2c[nH]c3cc(Cl)ccc23)CC2CN(C(=O)c3ccc4c(c3)OCCO4)CC21` (some centres unmarked) [I-77], the values for the pIC50 at CDK2/Cyclin E1(14-475) [1] and in the experiment on Kuramochi cells were less than 4.00 and less than 5.00, respectively.
Regarding `CNC(=O)[C@H](CCCc1ccccc1)NC(=O)C1CN(C(=O)Cc2c[nH]c3cc(Cl)ccc23)CC2CN(C(=O)c3cc(C4CC4)on3)CC21` (some centres unmarked) [I-81], the values for the pIC50 at CDK2/Cyclin E1(14-475) [1] and in the experiment on Kuramochi cells were 4.00 to 5.00 and less than 5.00, respectively.
For `CNC(=O)[C@H](Cc1ccccc1)NC(=O)C1CN(C(=O)Cc2c[nH]c3cc(Cl)ccc23)CC2CN(C(=O)c3ccc(OC(C)C)c(OC)c3)CC21` (some centres unmarked) [I-122], the negative-log IC50 (pIC50) against CDK2/Cyclin E1(14-475) [1] is 4.00 to 5.00.
Still for that read-out and setting: as for `CNC(=O)[C@H](Cc1ccc(O)cc1)NC(=O)C1CN(C(=O)Cc2c[nH]c3cc(Cl)ccc23)CC2CN(C(=O)c3ccc(OC(C)C)c(OC)c3)CC21` (some centres unmarked) [I-123], the figure is 4.00 to 5.00.
As for `CNC(=O)[C@@H](C)NC(=O)C1CN(C(=O)Cc2c[nH]c3cc(Cl)ccc23)CC2CN(C(=O)c3ccc(OC(C)C)c(OC)c3)CC21` (some centres unmarked) [I-124], the pIC50 was less than 4.00 on CDK2/Cyclin E1(14-475) [1] and less than 5.00 in the experiment on Kuramochi cells.
For `CNC(=O)[C@H](C)NC(=O)C1CN(C(=O)Cc2c[nH]c3cc(Cl)ccc23)CC2CN(C(=O)c3ccc(OC(C)C)c(OC)c3)CC21` (some centres unmarked) [I-125], the pIC50 on CDK2/Cyclin E1(14-475) [1] was 4.00 to 5.00.
On the same count and under the same terms, as for `CNC(=O)[C@H](CCCc1ccccc1)NC(=O)C1CN(C(=O)Cc2c[nH]c3c(Cl)cccc23)CC2CN(C(=O)c3ccc(OC(C)C)c(OC)c3)CC21` (some centres unmarked) [I-222], the figure is 5.00 to 6.00; as for `CNC(=O)[C@H](CCCc1ccccc1)NC(=O)C1CN(C(=O)Cc2c[nH]c3cc(OC)ccc23)CC2CN(C(=O)c3ccc(OC(C)C)c(OC)c3)CC21` (some centres unmarked) [I-235], 5.00 to 6.00.
For `C[C@H](OCc1ccc(F)cc1)[C@H](NC(=O)C1CN(C(=O)Cc2c[nH]c3cc(Cl)ccc23)CC2CN(C(=O)c3ccc(OC4CC4)cc3)CC21)C(N)=O` (some centres unmarked) [I-243], the negative-log IC50 (pIC50) at CDK2/Cyclin E1(14-475) [2] is 5.30 to 6.30; in the experiment on Kuramochi cells, less than 5.00.
As for `C[C@@H](OCc1ccc(F)cc1)[C@H](NC(=O)C1CN(C(=O)Cc2c[nH]c3cc(Cl)ccc23)CC2CN(C(=O)c3ccc(OC4CC4)cc3)CC21)C(N)=O` (some centres unmarked) [I-244], the pIC50 at CDK2/Cyclin E1(14-475) [2] and in the experiment on Kuramochi cells was less than 5.00 each time.
In the case of `C[C@H](OCc1ccc(F)cc1)[C@@H](NC(=O)C1CN(C(=O)Cc2c[nH]c3cc(Cl)ccc23)CC2CN(C(=O)c3ccc(OC4CC4)cc3)CC21)C(N)=O` (some centres unmarked) [I-245], the pIC50 on CDK2/Cyclin E1(14-475) [2] and with Kuramochi cells was less than 5.00 each time.
Take `C[C@@H](OCc1ccc(F)cc1)[C@@H](NC(=O)C1CN(C(=O)Cc2c[nH]c3cc(Cl)ccc23)CC2CN(C(=O)c3ccc(OC4CC4)cc3)CC21)C(N)=O` (some centres unmarked) [I-246]: the pIC50 on CDK2/Cyclin E1(14-475) [2] and in the experiment on Kuramochi cells was less than 5.00 in each case.
Regarding `CNC(=O)[C@H](CCCc1ccccc1)NC(=O)C1CN(C(=O)Cc2c[nH]c3cc(OC)ccc23)CC2CN(C(=O)c3ccc(Cl)c(Cl)c3)CC21` (stereo partly drawn) [I-247, 2-(3,4-dichlorobenzoyl)-5-(2-(6-methoxy-1H-indol-3-yl)acetyl)-N—((S)-1-(methylamino)-1-oxo-5-phenylpentan-2-yl)octahydro-1H-pyrrolo[3,4-c]pyridine-7-carboxamide], the pIC50 on CDK2/Cyclin E1(14-475) [2] and with Kuramochi cells was less than 5.00 each time.
`CNC(=O)[C@H](CCCc1ccccc1)NC(=O)C1CN(C(=O)Cc2c[nH]c3cc(OC)ccc23)CC2CN(C(=O)c3ccc(C(F)(F)F)c(Cl)c3)CC21` (some centres unmarked) [I-248]: the pIC50 at CDK2/Cyclin E1(14-475) [2] and in the experiment with Kuramochi cells was less than 5.00 in each case.
Turning to `CNC(=O)[C@@H](NC(=O)C1CN(C(=O)Cc2c[nH]c3cc(Cl)ccc23)CC2CN(C(=O)c3cc(-c4ccccc4)n[nH]3)CC21)[C@H](C)OCC1CCCCC1` (stereo partly drawn) [I-249, 5-(2-(6-chloro-1H-indol-3-yl)acetyl)-N-((2S,3S)-3-(cyclohexylmethoxy)-1-(methylamino)-1-oxobutan-2-yl)-2-(3-phenyl-1H-pyrazole-5-carbonyl)octahydro-1H-pyrrolo[3,4-c]pyridine-7-carboxamide], the negative logarithm of the IC50 (pIC50) at CDK2/Cyclin E1(14-475) [2] and with Kuramochi cells was less than 5.00 throughout.
For the compound `CNC(=O)[C@@H](NC(=O)C1CN(C(=O)Cc2c[nH]c3cc(Cl)ccc23)CC2CN(C(=O)c3cc(-c4ccccc4)n[nH]3)CC21)[C@H](C)OCc1ccccc1` (some centres unmarked) [I-250], the results for the pIC50 on CDK2/Cyclin E1(14-475) [2] and in the experiment on Kuramochi cells were 5.30 to 6.30 and less than 5.00, respectively.
For `CNC(=O)[C@@H](NC(=O)C1CN(C(=O)Cc2c[nH]c3cc(Cl)ccc23)CC2CN(C(=O)c3cc(-c4ccccc4)n[nH]3)CC21)[C@@H](C)OCc1ccccc1` (some centres unmarked) [I-252] the same measures were less than 5.00 and less than 5.00.
Regarding `CNC(=O)[C@H](CCCc1ccccc1)NC(=O)C1CN(C(=O)Cc2ccnc3ccccc23)CC2CN(C(=O)c3ccc(OC(C)C)c(OC)c3)CC21` (stereo partly drawn) [I-253, 2-(4-isopropoxy-3-methoxybenzoyl)-N—((S)-1-(methylamino)-1-oxo-5-phenylpentan-2-yl)-5-(2-(quinolin-4-yl)acetyl)octahydro-1H-pyrrolo[3,4-c]pyridine-7-carboxamide], the pIC50 on CDK2/Cyclin E1(14-475) [2] and in the experiment with Kuramochi cells was less than 5.00 in each case.
Consider `COC(=O)[C@@H](NC(=O)C1CN(C(=O)Cc2c[nH]c3cc(Cl)ccc23)CC2CN(C(=O)c3ccc(OC(C)C)c(OC)c3)CC21)[C@H](C)OCc1ccccc1` (stereo partly drawn) [I-255, methyl (2S,3S)-3-(benzyloxy)-2-(5-(2-(6-chloro-1H-indol-3-yl)acetyl)-2-(4-isopropoxy-3-methoxybenzoyl)octahydro-1H-pyrrolo[3,4-c]pyridine-7-carboxamido)butanoate], for which the pIC50 on CDK2/Cyclin E1(14-475) [2] is not below 6.30; with Kuramochi cells it was 5.30 to 6.30.
